Experiments:
[1] = molecular target: T1, human LXRβ (Homo sapiens, UniProt P55055); test: Ligand-binding test procedure for human LXRβ; conditions: 3H T0901317 tracer; biotinylated hLXRβ from E. coli extract
T1 construct: biotin (biotinylated); made in house; host or cells: E. coli
T1 sequence (P55055 1-460): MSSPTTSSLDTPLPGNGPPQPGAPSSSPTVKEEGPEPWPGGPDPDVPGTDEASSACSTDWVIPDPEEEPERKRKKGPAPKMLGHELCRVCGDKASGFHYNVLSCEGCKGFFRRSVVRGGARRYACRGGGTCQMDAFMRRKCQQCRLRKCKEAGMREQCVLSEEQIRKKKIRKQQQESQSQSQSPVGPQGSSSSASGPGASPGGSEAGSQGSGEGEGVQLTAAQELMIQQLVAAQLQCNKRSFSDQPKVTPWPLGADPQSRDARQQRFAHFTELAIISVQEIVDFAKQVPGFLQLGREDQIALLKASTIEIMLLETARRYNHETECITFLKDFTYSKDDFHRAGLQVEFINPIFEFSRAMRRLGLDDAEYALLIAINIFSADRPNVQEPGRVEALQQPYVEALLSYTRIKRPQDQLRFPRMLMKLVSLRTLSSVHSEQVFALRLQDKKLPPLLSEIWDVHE
Method: IV. Ligand-Binding Test Procedure for Human LXRβ.
(§1) Buffer: 100 mM KCl, 100 mM TRIS (pH 7.4 at +4° C.), 8.6% glycerol, 0.1 mM PMSF*, 2 mM MTG*, 0.2% CHAPS (* not used in wash buffer)
Receptor source: E. coli extract from cells expressing biotinylated hLXRβ. Extract was made in a similar buffer as above, but with 50 mM TRIS.
(§2) Washed streptavidin and coated flash plates with wash buffer. Diluted receptor extract to give Bmax ˜4000 cpm and add to the wells. Wrapped the plates in aluminum foil and stored them at +4° C. over night.
Made a dilution series in DMSO of the test ligands. Made a 5 nM solution of the radioactive tracer in buffer. Mixed 250 μl diluted tracer with 5 μl of the test ligand from each concentration of the dilution series. Washed the receptor-coated flash plates. Added 200 μl per well of the ligand/radiolabel mixture to the receptor-coated flash plates. Wrapped the plates in aluminum foil and incubate at +4° C. over night.
(§3) Aspirated wells, and wash the flashed plates. Sealed the plate. Measured the remaining radioactivity in the plate.

[2] = molecular target: T2, human LXRα (Homo sapiens, UniProt Q13133); test: Ligand-binding test procedure for human LXRα; conditions: 3H T0901317 tracer; biotinylated hLXRα from E. coli extract
T2 construct: biotin (biotinylated); made in house; host or cells: E. coli
T2 sequence (Q13133 1-447): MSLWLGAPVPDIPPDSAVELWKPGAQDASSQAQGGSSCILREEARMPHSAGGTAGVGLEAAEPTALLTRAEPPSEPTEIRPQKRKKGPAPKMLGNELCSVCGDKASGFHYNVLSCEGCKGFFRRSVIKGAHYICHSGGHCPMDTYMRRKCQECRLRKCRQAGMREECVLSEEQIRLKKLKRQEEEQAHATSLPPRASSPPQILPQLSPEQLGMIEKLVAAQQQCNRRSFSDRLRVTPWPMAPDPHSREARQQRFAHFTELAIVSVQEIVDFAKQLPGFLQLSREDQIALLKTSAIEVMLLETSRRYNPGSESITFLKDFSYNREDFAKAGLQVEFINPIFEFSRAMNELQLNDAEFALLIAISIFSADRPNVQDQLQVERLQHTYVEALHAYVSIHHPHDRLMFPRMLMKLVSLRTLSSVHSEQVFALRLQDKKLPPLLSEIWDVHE
Method: II. Ligand-Binding Test Procedure for Human LXRα.
as §1
Receptor source: E. coli extract from cells expressing biotinylated hLXRα. Extract was made in a similar buffer as above, but with 50 mM TRIS.
as §2
Made a dilution series in DMSO of the test ligands. Made a 5 nM solution of the radioactive tracer in buffer. Mixed 250 μl diluted tracer with 5 μl of the test ligand from each concentration of the dilution series.
Washed the receptor-coated flash plates.
Added 200 μl per well of the ligand/radiolabel mixture to the receptor-coated flash plates. Wrapped the plates in aluminum foil and incubate at +4° C. over night.
as §3

[3] = test system: ABCA1 gene; test: Quantitative analysis of ABCA1 gene regulation in THP-1 cells; type: cell-based; conditions: Gene regulation by LXR (human), differentiated THP-1 cells; for EC50: 18 hrs, ABCA1 mRNA by real-time PCR; for Agonism ABCA1: LXR agonist reference dosed at 1.0 uM as positive control
Method: III. Quantitative Analysis of ABCA1 Gene Regulation in THP-1 Cells.
The compounds of formula (I) effect on the regulation of the ABCA1 gene was evaluated using the following procedure.
Cell culture: The THP-1 monocytic cell line (ATCC # TIB-202) was obtained from American Type Culture Collection (Manassas, Va.) and cultured in RPMI 1640 medium (Gibco, Carlsbad, Calif.) containing 10% FBS, 2 mM L-glutamine, and 55 uM beta-Mercaptoethanol (BME). Cells were plated in 96-well format at a density of 7.5×10^4 in complete medium containing 50-100 ng/ml phorbal 12,13-dibutyrate (Sigma, St. Louis, Mo.) for three days to induce differentiation into adherent macrophages. Differentiated THP-1 cells were treated with test compounds or ligands dissolved in DMSO (Sigma, D-8779) in culture medium lacking phorbal ester. […] Dose response effects were measured in duplicate, in the range of 0.001 to 30 micromolar concentrations and treated cells were incubated for an additional 18 hrs prior to RNA isolation. Unstimulated cells treated with vehicle were included as negative controls on each plate. An LXR agonist reference, N-(2,2,2-trifluoro-ethyl)-N-[4-(2,2,2-trifluoro-1-hydroxy-1-trifluoromethyl-ethyl)-phenyl]-benzenesulfonamide (Schultz, Joshua R., Genes & Development (2000), 14(22), 2831-2838), was dosed at 1.0 uM and served as a positive control. In antagonist mode, the compound under study is analyzed in the presence of 150 nM GW3965, trifluoromethyl-benzyl)-(2,2-diphenyl-ethyl)-amino]-propoxy]-phenyl)-acetic acid (Collins, J. L., J. Med. Chem. (2000), 45:1963-1966.). Results of antagonist analysis are expressed as % antagonism and IC50 (in μM). RNA isolation and quantitation: Total cellular RNA was isolated from treated cells cultured in 96-well plates using PrepStation 6100 (Applied Biosystems, Foster City, Calif.), according to the manufacturer's recommendations. RNA was resuspended in ribonuclease-free water and stored at −70° C. prior to analysis. RNA concentrations were quantitated with RiboGreen test procedure, #R-11490 (Molecular Probes, Eugene, Oreg.). Gene expression analysis: Gene-specific mRNA quantitation was performed by real-time PCR with the Perkin Elmer Corp. chemistry on an ABI Prism 7700 Sequence detection system (Applied Biosystems, Foster City, Calif.) according to the manufacturer's instructions. Samples (50-100 ng) of total RNA were assayed in duplicate or triplicate in 50 ul reactions using one-step RT-PCR and the standard curve method to estimate specific mRNA concentrations. Sequences of gene-specific primer and probe sets were designed with Primer Express Software (Applied Biosystems, Foster City, Calif.). The human ABCA1 primer and probe sequences are: forward, […], reverse, […], and probe, 6FAM-[…]-TAMRA. RT and PCR reactions were performed according to PE Applied Biosystem's protocol for Taqman Gold RT-PCR or Qiagen's protocl for Quantitect probe RT-PCR. Relative levels of ABCA1 mRNA are normalized using GAPDH mRNA or 18S rRNA probe/primer sets purchased commercially (Applied Biosystems, Foster City, Calif.).
Mean, standard deviation and statistical significance of duplicate evaluations of RNA samples were assessed using ANOVA, one-way analysis of variance using SAS analysis.

| Structure (SMILES) | IC50 [1] [nM] | IC50 [2] [nM] | EC50 [3] [nM] | Agonism ABCA1 [3] [%] |
| --- | --- | --- | --- | --- |
| CCc1nc2c(C(F)(F)F)ccnn2c1-c1cccc(Oc2cccc(S(=O)(=O)CC)c2)c1 [Example 9, 2-Ethyl-3-{3-[3-(ethylsulfonyl)phenoxy]phenyl}-8-(trifluoromethyl)imidazo[1,2-b]pyridazine] | 148 | 1570 |  |  |
| CCc1nc2c(C(F)(F)F)ccnn2c1-c1cccc(Oc2cccc(S(C)(=O)=O)c2)c1 [Example 8, 2-ethyl-3-{3-[3-(methylsulfonyl)phenoxy]phenyl}-8-(trifluoromethyl)imidazo[1,2-b]pyridazine] | 133 | 2040 | 1850 | 85 |
| CC(C)c1nc2c(C(F)(F)F)ccnn2c1-c1cccc(Oc2cccc(S(C)(=O)=O)c2)c1 [Example 10, 2-isopropyl-3-{3-[3-(methylsulfonyl)phenoxy]phenyl}-8-(trifluoromethyl)imidazo[1,2-b]pyridazine] | 99 | 1460 | 1840 | 81 |
| CS(=O)(=O)c1cccc(Oc2cccc(-c3c(Cc4ccccc4)nc4c(C(F)(F)F)ccnn34)c2)c1 [Example 7, 2-Benzyl-3-{3-[3-(methylsulfonyl)phenoxy]phenyl}-8-(trifluoromethyl)imidazo[1,2-b]pyridazine] | 1.96 | 44 |  |  |
| CCS(=O)(=O)c1cccc(Oc2cccc(-c3c(C(C)C)nc4c(C(F)(F)F)ccnn34)c2)c1 [Example 11, 3-{3-[3-(ethylsulfonyl)phenoxy]phenyl}-2-isopropyl-8-(trifluoromethyl)imidazo[1,2-b]pyridazine] | 117 | 1090 | 2050 | 92 |

— patent US20100331333A1, “Imidazo [1,2-B] Pyridazine Compounds” (Wyeth LLC, priority 2007, published 2010)
